PubChem BioAssay AID330 (DTP/NCI, 2004)
“And” between values parts separate entries of the source, which are not always exact repeats. Equal entries are not always repeated. Toxic doses and inconclusive results are not listed.

Tested on: P388 leukemia ip, CD2F1 mice, survival T/C
Test: NCI In Vivo Anticancer Drug Screen. Data for tumor model P388 Leukemia (intraperitoneal) in CD2F1 (CDF1) mice
Details: endpoint: median survival time, higher = longer survival
In short: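 Mice carrying the transplanted tumor received test compound or vehicle. Survival was recorded in each group, and the value is the treated-group measurement divided by that of the vehicle-treated control group.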

[1] = dose: 12.5 mg/kg/injection, schedule: Q01DX005 (ip), vehicle: Klucel (hydroxypropylcellulose) (HPC)
[2] = dose: 25.0 mg/kg/injection, schedule: Q01DX005 (ip), vehicle: Klucel (hydroxypropylcellulose) (HPC)
[3] = dose: 50.0 mg/kg/injection, schedule: Q01DX005 (ip), vehicle: Klucel (hydroxypropylcellulose) (HPC)
[4] = dose: 50.0 mg/kg/injection, schedule: Q01DX009 (ip), vehicle: saline
[5] = dose: 100.0 mg/kg/injection, schedule: Q01DX009 (ip), vehicle: saline
[6] = dose: 200.0 mg/kg/injection, schedule: Q01DX009 (ip), vehicle: saline
[7] = dose: 60.0 mg/kg/injection, schedule: Q01DX005 (ip), vehicle: saline
[8] = dose: 120.0 mg/kg/injection, schedule: Q01DX005 (ip), vehicle: saline
[9] = dose: 240.0 mg/kg/injection, schedule: Q01DX005 (ip), vehicle: saline
[10] = dose: 50.0 mg/kg/injection, schedule: Q01DX005 (ip), vehicle: saline with Tween-80
[11] = dose: 100.0 mg/kg/injection, schedule: Q01DX005 (ip), vehicle: saline with Tween-80
[12] = dose: 100.0 mg/kg/injection, schedule: Q04DX002 (ip), vehicle: Klucel (hydroxypropylcellulose) (HPC)
[13] = dose: 200.0 mg/kg/injection, schedule: Q04DX002 (ip), vehicle: Klucel (hydroxypropylcellulose) (HPC)
[14] = dose: 400.0 mg/kg/injection, schedule: Q04DX002 (ip), vehicle: Klucel (hydroxypropylcellulose) (HPC)
[15] = dose: 50.0 mg/kg/injection, schedule: Q01DX009 (ip), vehicle: Klucel (hydroxypropylcellulose) (HPC)
[16] = dose: 100.0 mg/kg/injection, schedule: Q01DX009 (ip), vehicle: Klucel (hydroxypropylcellulose) (HPC)
[17] = dose: 200.0 mg/kg/injection, schedule: Q01DX009 (ip), vehicle: Klucel (hydroxypropylcellulose) (HPC)
[18] = dose: 100.0 mg/kg/injection, schedule: Q01DX005 (ip), vehicle: Klucel (hydroxypropylcellulose) (HPC)
[19] = dose: 200.0 mg/kg/injection, schedule: Q01DX005 (ip), vehicle: Klucel (hydroxypropylcellulose) (HPC)

In the case of `CC1(C)OC(c2ccccc2)=CC1=O`, the T/C (dose: 100.0 mg/kg/injection, schedule: Q04DX002 (ip), vehicle: saline with Tween-80) was 101 % of control and the T/C (dose: 200.0 mg/kg/injection, schedule: Q04DX002 (ip), vehicle: saline with Tween-80) was 101 % of control.

`N#CSC1=C(SC#N)C1(F)F` was tested, and the T/C (dose: 12.5 mg/kg/injection, schedule: Q04DX002 (ip), vehicle: Klucel (hydroxypropylcellulose) (HPC)) was 100 % of control, the T/C (dose: 25.0 mg/kg/injection, schedule: Q04DX002 (ip), vehicle: Klucel (hydroxypropylcellulose) (HPC)) was 100 % of control and the T/C (dose: 50.0 mg/kg/injection, schedule: Q04DX002 (ip), vehicle: Klucel (hydroxypropylcellulose) (HPC)) was 104 % of control.

`O=NN(CCCl)C(=O)NCCSSCCNC(=O)N(CCCl)N=O` (tested in a mixture with another compound) was tested, and the T/C [1] was 179 % of control and 211 % of control, the T/C [2] was 224 % of control and the T/C [3] was 120 % of control and 201 % of control.

`CN1C(=O)C23CCCN2C(=O)C1(C)SC(=O)S3` (stereo unspecified) was tested, and the T/C [4] was 98 % of control, the T/C [5] was 101 % of control and the T/C [6] was 98 % of control.

For `Cc1nc2scc(-c3ccccc3)n2c(=O)c1CN1CCCCC1`, the T/C (dose: 37.5 mg/kg/injection, schedule: Q04DX002 (ip), vehicle: Klucel (hydroxypropylcellulose) (HPC)) was 103 % of control, the T/C (dose: 75.0 mg/kg/injection, schedule: Q04DX002 (ip), vehicle: Klucel (hydroxypropylcellulose) (HPC)) was 106 % of control and the T/C (dose: 150.0 mg/kg/injection, schedule: Q04DX002 (ip), vehicle: Klucel (hydroxypropylcellulose) (HPC)) was 95 % of control.

For `Cc1ccc(S(=O)(=O)OCCOc2ccc3ccccc3c2-c2c(OCCOc3ccc4ccccc4c3-c3c(OCCOS(=O)(=O)c4ccc(C)cc4)ccc4ccccc34)ccc3ccccc23)cc1`, the T/C (dose: 100.0 mg/kg/injection, schedule: Q01DX001 (ip), vehicle: saline with Tween-80) was 101 % of control, the T/C (dose: 200.0 mg/kg/injection, schedule: Q01DX001 (ip), vehicle: saline with Tween-80) was 97 % of control and the T/C (dose: 400.0 mg/kg/injection, schedule: Q01DX001 (ip), vehicle: saline with Tween-80) was 97 % of control.

`c1c(-c2cc(C3CC3)[nH]n2)n[nH]c1C1CC1` was tested, and the T/C [7] was 101 % of control, the T/C [8] was 97 % of control and the T/C [9] was 100 % of control.

With `C=C(C#N)C1OC2OC(C)(C)OC2C1OC` (stereo unspecified) the T/C [10] was 107 % of control and the T/C [11] was 118 % of control.

`NC(CSCCCCl)C(=O)O` (stereo unspecified) was tested, and the T/C [4] was 95 % of control, the T/C [5] was 95 % of control and the T/C [6] was 97 % of control.

With `O=c1c2ccccc2c(Br)c(Br)c2ccccc12` the T/C (dose: 60.0 mg/kg/injection, schedule: Q01DX005 (ip), vehicle: saline with Tween-80) was 106 % of control, the T/C (dose: 120.0 mg/kg/injection, schedule: Q01DX005 (ip), vehicle: saline with Tween-80) was 110 % of control and the T/C (dose: 240.0 mg/kg/injection, schedule: Q01DX005 (ip), vehicle: saline with Tween-80) was 109 % of control.

With `CCN(CC)CCOC12CC3CC(CC(C3)C1)C2` the T/C [1] was 104 % of control, the T/C [2] was 101 % of control and the T/C [3] was 100 % of control and 104 % of control.

In the case of `O=[N+]([O-])c1cccc(SNSc2cccc([N+](=O)[O-])c2)c1`, the T/C [12] was 90 % of control, the T/C [13] was 88 % of control and the T/C [14] was 94 % of control.

For `CC(C)CC(C)NC(C)CC(C)C` (stereo unspecified), the T/C (dose: 12.5 mg/kg/injection, schedule: Q01DX005 (ip), vehicle: saline) was 90 % of control, the T/C (dose: 25.0 mg/kg/injection, schedule: Q01DX005 (ip), vehicle: saline) was 97 % of control and the T/C (dose: 50.0 mg/kg/injection, schedule: Q01DX005 (ip), vehicle: saline) was 102 % of control and 92 % of control.

In the case of `C/C=C(\C)C(=O)OCc1c2c(c(OC)c3occ(C)c13)C=CCC2C` (stereo unspecified), the T/C (dose: 5.5 mg/kg/injection, schedule: Q01DX009 (ip), vehicle: Klucel (hydroxypropylcellulose) (HPC)) was 94 % of control, the T/C (dose: 11.0 mg/kg/injection, schedule: Q01DX009 (ip), vehicle: Klucel (hydroxypropylcellulose) (HPC)) was 100 % of control and the T/C (dose: 22.0 mg/kg/injection, schedule: Q01DX009 (ip), vehicle: Klucel (hydroxypropylcellulose) (HPC)) was 100 % of control. For the same compound, the T/C (dose: 44.0 mg/kg/injection, schedule: Q01DX009 (ip), vehicle: Klucel (hydroxypropylcellulose) (HPC)) was 104 % of control.

For `C[Si](C)(C)N[Si](C)(C)C`, the T/C [15] was 100 % of control and the T/C [16] was 102 % of control.

With `CSc1nc(=O)[nH]nc1SCc1ccccc1` the T/C [15] was 114 % of control and 120 % of control, the T/C [16] was 101 % of control and 111 % of control and the T/C [17] was 108 % of control and 120 % of control.

`CC1(C)N=C(N)N=C(N)N1c1ccc(CCC(=O)Nc2ccc(S(=O)(=O)F)cc2)cc1` was tested, and the T/C (dose: 4.4 mg/kg/injection, schedule: Q01DX009 (ip), vehicle: saline with Tween-80) was 155 % of control, the T/C (dose: 6.6 mg/kg/injection, schedule: Q01DX009 (ip), vehicle: saline with Tween-80) was 150 % of control and the T/C (dose: 10.0 mg/kg/injection, schedule: Q01DX009 (ip), vehicle: saline with Tween-80) was 160 % of control. The T/C (dose: 12.5 mg/kg/injection, schedule: Q01DX009 (ip), vehicle: saline with Tween-80) was 169 % of control, the T/C (dose: 25.0 mg/kg/injection, schedule: Q01DX009 (ip), vehicle: saline with Tween-80) was 180 % of control and the T/C (dose: 44.0 mg/kg/injection, schedule: Q01DX009 (ip), vehicle: saline with Tween-80) was 168 % of control. For the same compound, the T/C (dose: 50.0 mg/kg/injection, schedule: Q01DX009 (ip), vehicle: saline with Tween-80) was 177 % of control, the T/C [4] was 93 % of control and the T/C (dose: 66.0 mg/kg/injection, schedule: Q01DX009 (ip), vehicle: saline with Tween-80) was 177 % of control.

In the case of `COc1ccc2c(NCCCCCCCCCCNc3c4ccccc4nc4cc(OC)ccc34)c3ccccc3nc2c1`, the T/C (dose: 2.5 mg/kg/injection, schedule: Q01DX009 (ip), vehicle: other) was 153 % of control and the T/C (dose: 5.0 mg/kg/injection, schedule: Q01DX009 (ip), vehicle: other) was 155 % of control.

For `CCOC(=O)CSc1ccc(C)cc1`, the T/C (dose: 25.0 mg/kg/injection, schedule: Q01DX009 (ip), vehicle: saline) was 105 % of control, the T/C [4] was 89 % of control and the T/C [5] was 96 % of control. The T/C [6] was 99 % of control.

In the case of `CC1CCC2C(C)C(=O)OC3OC4(C)CCC1C32OO4` (stereo unspecified), the T/C (dose: 2.5 mg/kg/injection, schedule: Q01DX005 (ip), vehicle: saline + alcohol) was 105 % of control, the T/C (dose: 5.0 mg/kg/injection, schedule: Q01DX005 (ip), vehicle: saline + alcohol) was 108 % of control and the T/C (dose: 10.0 mg/kg/injection, schedule: Q01DX005 (ip), vehicle: saline + alcohol) was 108 % of control. For the same compound, the T/C (dose: 20.0 mg/kg/injection, schedule: Q01DX005 (ip), vehicle: saline + alcohol) was 105 % of control.

With `COC(=O)CCC(N=C(OC)c1ccccc1)C(=O)OC` (stereo unspecified) the T/C [3] was 98 % of control, the T/C [18] was 103 % of control and the T/C [19] was 101 % of control.

`Cc1nc2ccccc2c(=O)o1` was tested, and the T/C [15] was 97 % of control, the T/C [16] was 98 % of control and the T/C [12] was 105 % of control. For the same compound, the T/C [17] was 90 % of control, the T/C [13] was 107 % of control and the T/C [14] was 100 % of control.

With `CCN1C(=O)C(N2CCCCC2)S/C1=C\C(=O)O` (stereo unspecified) the T/C [15] was 97 % of control, the T/C [16] was 110 % of control and the T/C [17] was 107 % of control.

With `O=C(O)C1C2C=CC(C1C(=O)O)N(/C=C/c1ccccc1)C2=O` (stereo unspecified) the T/C (dose: 100.0 mg/kg/injection, schedule: Q04DX003 (ip), vehicle: Klucel (hydroxypropylcellulose) (HPC)) was 102 % of control, the T/C (dose: 200.0 mg/kg/injection, schedule: Q04DX003 (ip), vehicle: Klucel (hydroxypropylcellulose) (HPC)) was 91 % of control and the T/C (dose: 400.0 mg/kg/injection, schedule: Q04DX003 (ip), vehicle: Klucel (hydroxypropylcellulose) (HPC)) was 90 % of control.

For `CCN(CC)CCOC(=O)Cc1ccc2c(=O)cc(-c3ccc(C)cc3)oc2c1`, the T/C [1] was 109 % of control, the T/C [2] was 108 % of control and the T/C [3] was 103 % of control and 114 % of control. The T/C [18] was 121 % of control.

In the case of `Cc1snnc1-c1ccccc1`, the T/C [3] was 105 % of control, the T/C [18] was 105 % of control and the T/C [19] was 96 % of control.

For `Cc1ccc(NC2OC(CO)C(O)C(O)C2O)cc1` (stereo unspecified), the T/C [4] was 104 % of control, the T/C [5] was 111 % of control and the T/C [6] was 98 % of control.

For `CO[C@@H]1[C@@H](O)c2ccccc2N1C(C)=O`, the T/C [7] was 104 % of control, the T/C [8] was 102 % of control and the T/C [9] was 104 % of control.

With `CCCCCC(=O)c1c(-c2ccc(C)cc2)cc(O)c(CCCC)c1-c1ccc(C)cc1` the T/C (dose: 25.0 mg/kg/injection, schedule: Q01DX005 (ip), vehicle: saline with Tween-80) was 108 % of control, the T/C [10] was 97 % of control and the T/C [11] was 104 % of control.
